Laboratory results as given in ChEMBL document CHEMBL3046241, “Synthesis and evaluation of 2-amino-5-sulfanyl-1,3,4-thiadiazoles as antidepressant, anxiolytic, and anticonvulsant agents” (Med Chem Res, 2009).
Activity calls are given as the source filed them. The calls are words filed in the database; no cut-off is given here.

Tests used:
Mus musculus [1] = assay: Anticonvulsant activity against pentylenetetrazole-induced seizures in Mus musculus Swiss albino (mouse) assessed as onset of seizures at 4 mg/kg, po administered 1 hr prior challenge; type: functional, organism-based; set-up: dose 4 mg/kg
Mus musculus [2] = assay: Anxiolytic activity in Mus musculus Swiss albino (mouse) assessed as time spent in light chamber at 2 mg/kg by light-dark box test; type: functional
Mus musculus [3] = species on record: Mus musculus; assay: Anxiolytic activity in Mus musculus Swiss albino (mouse) assessed as time spent in open arm by elevated plus maze test; type: functional
Mus musculus [4] = assay: Toxicity in Mus musculus Swiss albino (mouse) assessed as mortality at 4 mg/kg, po; type: organism-based; set-up: dose 4 mg/kg, route oral; conditions: in vivo
Mus musculus [5] = assay: Toxicity in Mus musculus Swiss albino (mouse) assessed as mortality at 25 mg/kg, po; type: organism-based; set-up: dose 25 mg/kg, route oral; conditions: in vivo
Mus musculus [6] = assay: Anticonvulsant activity against pentylenetetrazole-induced seizures in Mus musculus Swiss albino (mouse) assessed as onset of seizures at 25 mg/kg, po administered 1 hr prior challenge; type: functional
Mus musculus [7] = assay: Anticonvulsant activity against maximal electroshock-induced seizures in Mus musculus Swiss albino (mouse) assessed as time duration of tonic limb extensor at 25 mg/kg; type: functional
Mus musculus [8] = assay: Antidepressant activity in Mus musculus Swiss albino (mouse) assessed as duration of immobility at 25 mg/kg, ip measured after 1 hr by forced swim test test relative to pretreatment; type: functional; conditions: route intraperitoneal
Mus musculus [9] = assay: Anticonvulsant activity against maximal electroshock-induced seizures in Mus musculus Swiss albino (mouse) assessed as animals protected at 25 mg/kg; type: functional
Mus musculus [10] = assay: Anxiolytic activity in Mus musculus Swiss albino (mouse) assessed as time spent in light chamber at 25 mg/kg by light-dark box test; type: functional
Mus musculus [11] = assay: Antidepressant activity in Mus musculus Swiss albino (mouse) assessed as as increase in mobile phase at 25 mg/kg, ip measured after 1 hr by tail suspension test; type: functional; conditions: route intraperitoneal
Mus musculus [12] = assay: Anticonvulsant activity against maximal electroshock-induced seizures in Mus musculus Swiss albino (mouse) assessed as time duration of tonic limb extensor at 40 mg/kg; type: functional
Mus musculus [13] = assay: Anticonvulsant activity against maximal electroshock-induced seizures in Mus musculus Swiss albino (mouse) assessed as animals protected at 40 mg/kg; type: functional
Mus musculus [14] = assay: Antidepressant activity in ip dosed Mus musculus Swiss albino (mouse) assessed as duration of immobility measured after 1 hr by forced swim test relative to pretreatment; type: functional

Row | SMILES | Activity (Mus musculus [1]) | Time (Mus musculus [2]) [s] | Time (Mus musculus [3]) [s] | Activity (Mus musculus [4]) | Activity (Mus musculus [5]) | Time (Mus musculus [6]) [s] | Time (Mus musculus [7]) [s] | Activity (Mus musculus [8]) [%] | Activity (Mus musculus [9]) [%] | Time (Mus musculus [10]) [s] | Activity (Mus musculus [11]) [%] | Time (Mus musculus [12]) [s] | Activity (Mus musculus [13]) [%] | Activity (Mus musculus [14]) [%]
1 | CN1C(=O)CN=C(c2ccccc2)c2cc(Cl)ccc21 [DIAZEPAM] | Active | 193 | 58.76 | Non-toxic | – | – | – | – | – | – | – | – | – | –
2 | O=C(Nc1nnc(Sc2ccc(Br)cc2)s1)c1ccccc1 | – | – | 20.88 | – | Toxic | 78.27 | 7.96 | 1.1 | 0 | 153.16 | 12 | – | – | –
3 | O=C(Nc1nnc(Sc2ccc(C(Cl)(Cl)Cl)cc2)s1)c1ccccc1 | – | – | 20.38 | – | Non-toxic | 71.21 | 7.08 | -22.15 | 0 | 152.33 | 30.7 | – | – | –
4 | O=C(Nc1nnc(Sc2ccc(S(=O)(=O)Cl)cc2)s1)c1ccccc1 | – | – | 34.11 | – | Non-toxic | 102.26 | 6.25 | -33.58 | 0 | 166.66 | 49.29 | – | – | –
5 | NS(=O)(=O)c1ccc(Sc2nnc(NC(=O)c3ccccc3)s2)cc1 | – | – | 38.5 | – | Toxic | 86.98 | 6.7 | -33.22 | 0 | 163.66 | 49.86 | – | – | –
6 | O=C1NC(=O)C(c2ccccc2)(c2ccccc2)N1 [PHENYTOIN] | – | – | – | – | – | – | – | – | – | – | – | 0 | 100 | –
7 | O=C(Nc1nnc(Sc2ccc(F)cc2)s1)c1ccccc1 | – | – | 32.694 | – | Non-toxic | 91.416 | 6.37 | -20.3 | 0 | 153.66 | 28.45 | – | – | –
8 | CN(C)CCCN1c2ccccc2CCc2ccccc21.Cl [IMIPRAMINE HYDROCHLORIDE] | – | – | – | – | – | – | – | – | – | – | – | – | – | -47.48
9 | O=C(Nc1nnc(Sc2ccc(C(F)(F)F)cc2)s1)c1ccccc1 | – | – | 29.86 | – | Toxic | 81.74 | 6.18 | -29.78 | 0 | 163 | 46.93 | – | – | –
10 | Cc1ccc(Sc2nnc(NC(=O)c3ccccc3)s2)cc1 | – | – | 31.13 | – | Non-toxic | 78.35 | 7.35 | 1.35 | 0 | 143 | 17.26 | – | – | –
